One experiment concerns Influenza A virus. Put plainly: Antiviral activity against Influenza A virus A2/Taiwan. The format is functional, organism-based.
A further experiment has as its system Human alphaherpesvirus 2. Put plainly: Antiviral activity against Human herpesvirus 2. The format is functional, organism-based.

Activity calls are given as the source filed them. No cut-off for these calls is given here.

With `NC1C2C3CC4C5CC(C42)C1(c1ccccc1)C53` (racemic), the outcome in the experiment with Influenza A virus and with Human alphaherpesvirus 2 was Active.

The values above are taken from ChEMBL document CHEMBL3045192, “Medicinal chemistry of polycyclic cage compounds in drug discovery research” (Med Chem Res, 2008).
